# “And” between values parts separate entries of the source, which are not always exact repeats. Identical values can stand only once. Like-named read-outs stand apart in the source and are kept apart here.
# Tests used:
# [1] = test system: subcutaneous hematoma
# [2] = test system: VEGF, TGF-β, MMP-9 and Ang-1/2; test: Rat subdural hematoma model: factor expression in hematoma capsule/cavity (real-time PCR, ELISA); assay type: in vivo
# Description: In FIG. 1 to FIG. 9, “#” denotes a statistically significant difference in the small-dose group and the large-dose group as compared with the control group; and “*” denotes a statistically significant difference between the small-dose group and the large-dose group.
# [3] = test system: chronic subdural hematoma; settings: for Hematoma amount in the fourth week, average value: treatment for one month, conservatively successful patients
# [4] = test system: VEGF, TGF-β, MMP-9 and Ang-1/2; settings: small dose of atorvastatin, recent animal experiments; cited from earlier work
# [5] = large-dose 5 mg/kg/day, 28 rats
# [6] = small-dose 3 mg/kg/day, 30 rats
# [7] = large-dose group 8 mg/kg/day oral, 2 days
# [8] = large-dose group 8 mg/kg/day, 7 days after the operation
# [9] = small-dose group 3 mg/kg/day oral, 2 days
# [10] = small-dose group 3 mg/kg/day, 7 days after the operation, vs control and large-dose group
smiles,measurement,setting,value
CC(C)c1c(C(=O)Nc2ccccc2)c(-c2ccccc2)c(-c2ccc(F)cc2)n1CC[C@@H](O)C[C@@H](O)CC(=O)O [atorvastatin],Injury infection,[1]; [5],4
same,Rats died in the treatment,[1]; [5],7
same,death rate,[1]; large-dose group compared with small-dose atorvastatin group,significantly improved
same,hormone-caused complications,"[1]; rat, in vivo",significantly increased
same,Poor condition,"[1]; rat, in vivo, 3 mg/kg/day",3
same,Poor condition,"[1]; rat, in vivo, 5 mg/kg/day",6
same,Injury infection,[1]; [6],1
same,Rats died in the treatment,[1]; [6],2
same,expression of MMP-9,[2]; [7],significantly higher
same,expression of TGFβ,[2]; [7],significantly higher
same,expression of VEGF,[2]; [7],significantly higher
same,expression of Ang2,[2]; [8],high expressions
same,expression of MMP-9,[2]; [8],high expressions
same,expression of TGF-β,[2]; [8],high expressions
same,expression of VEGF,[2]; [8],high expressions
same,mRNA expression of hematoma capsule Ang1,[2]; [9],significantly higher
same,mRNA expression of hematoma capsule VEGF,[2]; [9],significantly higher
same,Ang1,[2]; [10],significantly higher
same,expression level of MMP-9,[2]; [10],significantly lower
same,expression level of VEGF,[2]; [10],significantly lower
same,"Hematoma amount in the fourth week, average value",[3]; atorvastatin alone,28.29 ± 29.47 mL and 28.29 mL
same,local TNF-α and IL-6 gene and protein levels in the hematoma capsule,[4],significantly reduce
C[C@@H]1C[C@H]2[C@@H]3CCC4=CC(=O)C=C[C@]4(C)[C@@]3(F)[C@@H](O)C[C@]2(C)[C@@]1(O)C(=O)CO [dexamethasone],"Reduced hematoma amount in the fourth week, average value",[3]; small dose dexamethasone alone,24.71 mL
same,"patients with no therapeutic effect, transferred to surgical treatment","[3]; small dose dexamethasone alone, among the 15 patients",5 patients
same,average hematoma absorption rate,"[3]; small dose dexamethasone alone, fourth week / one month after administration",35%
same,Hematoma amount in the fourth week,"[3]; small dose dexamethasone alone, oral, 0.75 mg 3x/day wk 1, 2x/day wk 2-3, 1x/day wk 4, individual patients (15)",40.95 ml and 80.00 ml (2×) and 36.30 ml and 32.73 ml and 96.53 ml and 39.88 ml and 30.25 ml and 35.00 ml and 37.00 ml
same,"Hematoma amount in the fourth week, average value",[3]; small dose dexamethasone alone,50.86 ± 24.52 mL and 50.86 mL
same,Reduced hematoma amount in the fourth week,"[3]; small dose dexamethasone alone, individual patients (15)",20.93 mL and 25.00 mL and 39.64 mL and 23.90 mL and 8.13 mL and 38.43 mL and 24.08 mL and 36.40 mL and 13.60 mL and 17.00 mL

# Reference: US10646496B2, “Joint application of statin and adrenocortical hormone for treating chronic subdural hematoma” (priority 2016, dated 2020)
